Data set [1] relates to HIV-1. The note with it: read-out: EC50 HIV-1.
Data set [2] has as its system HIV-1 EFV^R (K103R + V179D + P225H mutant). Kind of data set: microbe, parasite or virus in culture. The note with it: read-out: EC50 EFV^R. It counts as cell-based, Human Immunodeficiency Virus type-1.
For data set [3], the system named is HIV-1 N119 (Y181C mutant). Kind of data set: microbe, parasite or virus in culture. It counts as cell-based, Human Immunodeficiency Virus type-1. The note with it: read-out: EC50 N119.
For data set [4], the system named is HIV-1 A17 (K103N + Y181C mutant). Nature of the data set: microbe, parasite or virus in culture. It counts as cell-based, Human Immunodeficiency Virus type-1. The following applies: read-out: EC50 A17.
The subject of data set [5] is HIV-1 AZT^R strain (67N, 70R, 215F, 219Q). Nature of the data set: microbe, parasite or virus in culture. The note with it: read-out: EC50 AZT^R. In kind it is cell-based, Human Immunodeficiency Virus type-1.
Data set [6] deals with HIV-1 MDR strain (74V, 41L, 106A, 215Y). Nature of the data set: microbe, parasite or virus in culture. It counts as cell-based, Human Immunodeficiency Virus type-1. The following applies: read-out: EC50 MDR.
The next data set relates to VSV. Nature of the data set: microbe, parasite or virus in culture. It counts as cell-based. The following applies: Vesicular stomatitis virus, Vero 76, read-out: VSV EC50.
Another data set concerns Reo-1. Nature of the data set: microbe, parasite or virus in culture. In kind it is cell-based, reovirus type-1. The note with it: for EC50: Reovirus sp., BHK, read-out: Reo-1 EC50.
Another data set concerns CV-B5. Kind of data set: microbe, parasite or virus in culture. It counts as cell-based, coxsackievirus B5. The following applies: Enterovirus B, CVB5, Vero 76, read-out: CV-B5 EC50.
A further data set has as its system VV. Nature of the data set: microbe, parasite or virus in culture. In kind it is cell-based. The following applies: Orthopoxvirus vaccinia, Vero 76, read-out: VV EC50.
The next data set concerns BVDV. Nature of the data set: microbe, parasite or virus in culture. It counts as cell-based, bovine viral diarrhoea virus. The following applies: for EC50: Bovine viral diarrhea virus isolates and strains, MDBK, in Bos taurus, read-out: BVDV EC50.
A short description of data set [7]: in vitro. The note with it: cattle (Bos taurus).
For data set [8], the system named is BHK cells. The following applies: Syrian hamster (Mesocricetus auratus).
A short description of data set [9]: in vitro. The note with it: African green monkey (Cercopithecus aethiops).
Data set [10] in a line: in vitro. The following applies: Syrian hamster (Mesocricetus auratus).
Another data set concerns RSV. Kind of data set: microbe, parasite or virus in culture. It counts as cell-based, human respiratory syncytial virus. The following applies: human respiratory syncytial virus, Vero 76, read-out: RSV EC50.
The nature of data set [11]: in vitro. The note with it: human.
A further data set concerns HSV-1. Nature of the data set: microbe, parasite or virus in culture. The following applies: Human alphaherpesvirus 1, Vero 76, read-out: HSV-1 EC50. In kind it is cell-based, human herpes 1.
The test system of the next data set is YFV. Nature of the data set: microbe, parasite or virus in culture. It counts as cell-based. The following applies: Yellow fever virus, BHK, read-out: YFV EC50.
The test system of another data set is Sb-1. Nature of the data set: microbe, parasite or virus in culture. In kind it is cell-based, poliovirus type-1. The following applies: Enterovirus C, Vero 76, read-out: Sb-1 EC50.
Data set [12] concerns HIV-1. Nature of the data set: microbe, parasite or virus in culture. The note with it: Human immunodeficiency virus 1, MT4, read-out: HIV-1 EC50.
Data set [13] deals with cell lines derived from human haematological tumours. Kind of data set: Cytotoxicity against cell lines derived from human haematological tumours, MTT. In kind it is cell-based. The following applies: CCRF-CEM, WIL-2NS, CCRF-SB, read-out: CC50 range over cell lines derived from human haematological tumours. The method, then:
Cell lines derived from human haematological tumours [CD4+ human acute T-lymphoblastic leukaemia (CCRF-CEM), human splenic B-lymphoblastoid cells (WIL-2NS), human acute B-lymphoblastic leukaemia (CCRF-SB)] were seeded at an initial density of 1 × 10^5 cells/mL in 96 well plates in RPMI-1640 medium supplemented with 10% foetal calf serum (FCS), 100 units/mL penicillin G and 100 μg/mL streptomycin. Cell viability was determined after 96 h at 37 °C by the MTT method. All cell cultures were then incubated at 37 °C in a humidified, 5% CO2 atmosphere, in the absence or presence of serial dilutions of test compounds in culture medium. Before dilutions, compounds were dissolved in DMSO at 100 mM.

In a further data set the test system is CCRF-CEM. Nature of the data set: Cytotoxicity against leukaemia/lymphoma cell lines, MTT. The note with it: Homo sapiens, 96 h, read-out: CC50 CCRF-CEM.
Another data set concerns WIL-2NS. Nature of the data set: Cytotoxicity against leukaemia/lymphoma cell lines, MTT. The note with it: Homo sapiens, WIL2-NS, 96 h, read-out: CC50 WIL-2NS.
For a further data set, the system named is CCRF-SB. Described as above. The note with it: Homo sapiens, 96 h, read-out: CC50 CCRF-SB.
Data set [14] in a line: Cytotoxicity, MTT method. The note with it: African green monkey (Cercopithecus aethiops). On the technique in general: Tetrazolium dyes change colour on reduction, which living cells bring about.
Data set [15] is described as follows: Cytotoxicity, MTT method. The note with it: Syrian hamster (Mesocricetus auratus).
Data set [16] relates to BHK cells. Kind of data set: Cytotoxicity, MTT method. The note with it: read-out: BHK CC50; reduce the proliferation of mock-infected BHK cells by 50% (Table 6).
Data set [17] is described as follows: Cytotoxicity, MTT method. The note with it: human.
Data set [18] is described as follows: Cytotoxicity, MTT method. The note with it: cattle (Bos taurus).

Structures are written as SMILES. Like-named read-outs stand apart in the source and are kept apart here. A value given as a limit tells only on which side of the number the result lay.

The compound `Cc1cn([C@H]2C[C@H](N=[N+]=[N-])[C@@H](CO)O2)c(=O)[nH]c1=O` [AZT] showed a CC50 with MT-4 cells of 45 µM. For the same compound, the EC50 in the data set with HIV-1 [1] came to 0.022 ± 0.004 µM; in data set [2], 0.02 ± 0.001 µM; in data set [3], 0.025 ± 0.004 µM; in [4], 0.01 ± 0.001 µM; in data set [5] it was 0.35 ± 0.04 µM; in data set [6], 0.08 ± 0.006 µM.
On to `C=CCNC(=S)NCCc1c[nH]c2ccccc12` [Compound 18, 1-(2-(1H-Indol-3-yl)ethyl)-3-allylthiourea], for which the EC50 with VSV was > 100 µM; in the data set on Reo-1 it was 61 µM; in the data set on CV-B5, > 100 µM; in the data set on VV, > 100 µM; with BVDV it was > 100 µM; with RSV, > 100 µM. Also, the half-maximal effective concentration (EC50) in the data set on HSV-1, in the data set on YFV, in the data set with Sb-1 and in the data set on HIV-1 [12] was > 100 µM throughout. In the data set on Reo-1, the “activity against Reo-1 (in words)” value is listed as “not particularly significant”. The CC50 in “in vitro [7]”, with BHK cells [8], in “in vitro [9]”, in the data set “in vitro [10]” and in “in vitro [11]” was > 100 µM each time.
Consider `CCOC(=O)NC(=S)NCCc1c[nH]c2ccccc12` [Compound 20, 1-(2-(1H-Indol-3-yl)ethyl)-3-ethoxycarbonylthiourea], for which the concentration giving a half-maximal response (EC50) in the data set with VSV is > 100 µM; with Reo-1 it was > 100 µM; with CV-B5, > 100 µM; in the data set on VV, > 100 µM; in the data set with BVDV, 35 ± 2.8 µM; with RSV it was > 100 µM. Moreover, the EC50 with HSV-1, in the data set on YFV, with Sb-1 and in the data set on HIV-1 [12] was > 100 µM throughout. Besides, the “activity against BVDV (in words)” value with BVDV is recorded as “showed activity”. The CC50 in “in vitro [7]”, with BHK cells [8], in “in vitro [9]”, in the data set “in vitro [10]” and in the data set “in vitro [11]” was > 100 µM throughout. In addition, the “cytotoxicity for MDBK cell lines (in words)” value in the data set on MDBK cells is “lack of cytotoxicity”.
As to `S=C(NCCc1c[nH]c2ccccc12)Nc1ccc(I)cc1` [Compound 21, 1-(2-(1H-Indol-3-yl)ethyl)-3-(4-iodophenyl)thiourea], the melting point fell in the range of 162 to 165 °C. In the data set on VSV, the EC50 was > 11 µM. Besides, the EC50 in the data set with Reo-1 was > 11 µM. Moreover, the concentration giving a half-maximal response (EC50) in the data set on CV-B5 is > 11 µM. The EC50 with VV is > 11 µM. Besides, the EC50 with BVDV was > 100 µM. For the same compound, the CC50 in the data set “in vitro [7]” is > 100 µM. Further, the CC50 in [13] lay in the range of 5 to 12 µM. This compound came in with a CC50 in the data set “in vitro [9]” of 11 µM. Moreover, the CC50 with CCRF-CEM stood at 5 ± 0.8 µM. The same compound showed a CC50 in the data set “in vitro [10]” of 11 µM. Also, in the data set on RSV, the EC50 is > 11 µM. Moreover, the CC50 in the data set “in vitro [11]” came to 2.4 ± 0.2 µM. For the same compound, in the data set on HSV-1, the EC50 is > 11 µM. The concentration for a half-maximal effect (EC50) with YFV was > 11 µM. In addition, in the data set with Sb-1, the EC50 is > 11 µM. The CC50 in the data set with WIL-2NS was found to be 5.8 ± 1 µM. For the same compound, in the data set with HIV-1 [12], the EC50 was > 2.4 µM. Also, the CC50 in the data set on CCRF-SB amounted to 12 ± 1.6 µM.
On to `CCNC(=S)NCCc1c[nH]c2ccccc12` [Compound 22, 1-(2-(1H-Indol-3-yl)ethyl)-3-ethylthiourea], for which the CC50 in “Cytotoxicity, MTT method [14]” was > 100 µM; in the data set “Cytotoxicity, MTT method [15]”, > 100 µM; in the data set on BHK cells [16] it was > 100 µM; in “Cytotoxicity, MTT method [17]” it was > 100 µM; in “Cytotoxicity, MTT method [18]” it was > 100 µM. The EC50 in the data set with VSV, with Reo-1, with CV-B5, with VV, in the data set with BVDV and with RSV was > 100 µM throughout. For the same compound, the EC50 in the data set on HSV-1, with YFV, in the data set on Sb-1 and in the data set with HIV-1 [12] was > 100 µM in each case.
For `CNC(=S)NCCc1c[nH]c2ccccc12` [Compound 25, 1-(2-(1H-Indol-3-yl)ethyl)-3-methylthiourea], the CC50 in the data set “Cytotoxicity, MTT method [14]” was > 100 µM; in “Cytotoxicity, MTT method [15]”, > 100 µM; with BHK cells [16], > 100 µM; in “Cytotoxicity, MTT method [17]” it was > 100 µM; in the data set “Cytotoxicity, MTT method [18]”, > 100 µM. For the same compound, the EC50 in the data set with VSV, in the data set with Reo-1, in the data set on CV-B5, in the data set on VV, with BVDV and in the data set with RSV was > 100 µM each time. The concentration for a half-maximal effect (EC50) in the data set with HSV-1, in the data set with YFV, in the data set with Sb-1 and with HIV-1 [12] was > 100 µM throughout.
As for `COc1cccc2c1C(=O)c1c(O)c3c(c(O)c1C2=O)C[C@@](O)(C(=O)CO)C[C@@H]3O[C@H]1C[C@H](N)[C@H](O)[C@H](C)O1` [Doxorubicin, reference compound], the CC50 came out at 0.02 ± 0.002 µM in the data set on CCRF-CEM, 0.02 ± 0.003 µM in the data set on WIL-2NS and 0.03 ± 0.003 µM with CCRF-SB.

The EC50 is the midpoint of the concentration-response curve. For orientation: melting point means the temperature, or range, at which the solid turns liquid.

Source of the values: article PMC6222422, “Synthesis and Biological Evaluation of Novel Indole-Derived Thioureas” (Molecules : A Journal of Synthetic Chemistry and Natural …, 2018).
